# According to patent US20050100998A1 (priority 2000, published 2005):
# “Also recorded” adds a separate entry of the source.
# Columns and labels:
# UMP-CMP kinase [1] = target: T1, UMP-CMP kinase (Homo sapiens, UniProt P30085); assay: Enzymatic activity assay (NMP phosphorylation, TLC of radiolabelled products); format: biochemical; conditions: for phosphorylation of the NMP as substrate (phosphate acceptor), in words: lysates of transfected cells vs vector-transfected cells, FIG. 5A; for ability of the NTP to act as phosphate donor (CDP formed), in words: NTP varied
# T1 construct: This cDNA codes for a predicted 196 amino-acid protein; expressed in transfected cells; host or cells: HEK 293 or COS-7 cells transiently transfected with pRc/CMV carrying the UMP-CMP kinase cDNA; crude lysate used
# T1 sequence (P30085 1-196): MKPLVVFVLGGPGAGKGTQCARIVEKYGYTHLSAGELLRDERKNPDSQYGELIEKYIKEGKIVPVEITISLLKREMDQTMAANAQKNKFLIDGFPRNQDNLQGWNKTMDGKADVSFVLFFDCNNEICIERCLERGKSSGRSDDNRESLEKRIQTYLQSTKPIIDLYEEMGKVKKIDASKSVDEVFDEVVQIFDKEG
# Experimental: Tests were conducted on the enzyme produced by the cDNA.
# Since many NMP kinases phosphorylate multiple types of NMPs with varying relative kinetics, a variety of NMPs were tested as substrates.
# The most preferred phosphate donor of the kinase was next investigated. […] The amount of CDP formed indicates the ability of each NTP to act as a phosphate donor.
# Cell lysates (25 μg total protein) prepared as described for Western blot were added to the following reaction mixture: 83 mM tris-HCl (pH 8.0), 3.3 mM MgCl2, 0.17 M KCl, 6.7 mM NTP, 6.7 mM NMP and 0.1 μCi of the indicated [^3H]-NU (60.4 mCi/mmol). The reaction was carried out at 37° C. for 6 min and terminated with an equal volume of 2 M formic acid. Unlabeled NDP was added (6.7 mM final concentration) and the reactions were dried under a steam of nitrogen. The products were resuspended in distilled H2O and analyzed by thin layer chromatography.
# Chromatography was performed by ascending development (dry start) in closed plexiglass chambers at room temperature using 0.25 M KH2PO4 (pH 3.4) as described previously. […] The products were visualized under UV light and identified by co-migration with authentic nucleotides. Spots corresponding to different nucleotides were scraped from the plate and radioactive reaction products were quantified with a multi-purpose liquid scintillation counter.
# UMP-CMP kinase [2] = target: T1, UMP-CMP kinase; conditions: Mol. Pharmacol. 56:562-569 (1999), ATP as donor, 30 min; cited from earlier work
# HL-60 cells = assay: RT-PCR of UMP-CMP kinase expression and phenotype in differentiating HL-60 cells; format: cell-based, human; conditions: HL-60 cells treated with differentiating agent
# Text: The possibility that UMP-CMP kinase was developmentally regulated as monocytes proceed toward the macrophage phenotype was also investigated. To assess this, human monocytes were isolated and cultered for 10 days as they differentiated into macrophages. RNA was isolated on the day of cell plating and then throughout the culture period. […] These cells are monocytic, but differentiate into macrophage-like cells in the presence of phorbol-12-myristate-13-acetate (PMA) (Murao et al., 1983; Rovera et al., 1979), or into neutrophils in the presence of DMSO (Collins et al., 1975). […] These changes included adhesion and altered cell shape. No change in UMP-CMP kinase expression was detected, however, when assayed by RT-PCR. […] Similarly, no change was detected after DMSO treatment.
# Because the cDNA had been cloned from a macrophage library, it was also considered possible that UMP-CMP kinase expression might be developmentally regulated as monocytes proceed toward the macrophage phenotype. To evaluate this possibility, Human monocytes were isolated and cultured for 10 days as they differentiated into macrophages. […] In order to confirm this conclusion, HL-60 cells were employed. […] Similarly, no change in this message was detected after DMSO treatment (data not shown).
# [3] = varying Mg^2+ concentrations, FIG. 4
smiles,measurement,setting,value
Nc1ncnc2c1ncn2[C@@H]1O[C@H](COP(=O)(O)O)[C@@H](O)[C@H]1O [AMP],"phosphorylation of the NMP as substrate (phosphate acceptor), in words",UMP-CMP kinase [1],only slightly
Nc1ncnc2c1ncn2[C@@H]1O[C@H](COP(=O)(O)OP(=O)(O)OP(=O)(O)O)[C@@H](O)[C@H]1O [ATP],"ability of the NTP to act as phosphate donor (CDP formed), in words","UMP-CMP kinase [1]; CMP as substrate, FIG. 5B",preferred as phosphate donors over CTP and GTP
same,"phosphorylation of the NMP as substrate (phosphate acceptor), in words",UMP-CMP kinase [1],Modest
"Nc1ccn([C@@H]2O[C@H](COP(=O)(O)O)[C@@H](O)[C@H]2O)c(=O)n1 [CMP, Cytidine Monophosphate]",phosphorylation by the kinase as reported by Van Rompay et al.,UMP-CMP kinase [2],efficiently phosphorylated
same,reaction efficiency in the presence of CMP relative to UMP,UMP-CMP kinase [1],three-fold greater reaction efficiency
same,"phosphorylation of the NMP as substrate (phosphate acceptor), in words",UMP-CMP kinase [1],prefers
Nc1ccn([C@@H]2O[C@H](COP(=O)(O)O)[C@@H](O)[C@@H]2O)c(=O)n1 [CTP],reaction efficiency as phosphate donor relative to ATP or UTP,"UMP-CMP kinase [1]; CMP as substrate, FIG. 5B",half and approximately half
C[S+](C)[O-] [DMSO],change in UMP-CMP kinase expression by RT-PCR,HL-60 cells,no change
Nc1nc2c(ncn2[C@@H]2O[C@H](COP(=O)(O)O)[C@@H](O)[C@H]2O)c(=O)[nH]1 [GMP],"phosphorylation of the NMP as substrate (phosphate acceptor), in words",UMP-CMP kinase [1],unable to phosphorylate
[Mg+2] [Mg^2+],Mg^2+ concentration giving maximal UMP-CMP kinase activity,UMP-CMP kinase [1]; [3],3 mM
same,"effect of Mg^2+ on UMP-CMP kinase activity, in words",UMP-CMP kinase [1]; [3],increases UMP-CMP kinase activity in a concentration-dependent manner
"CCCCCCCCCCCCCC(=O)O[C@@H]1[C@@H](C)[C@@]2(O)[C@@H](C=C(CO)C[C@]3(O)C(=O)C(C)=C[C@@H]23)[C@@H]2C(C)(C)[C@]12OC(C)=O [PMA, phorbol-12-myristate-13-acetate]",change in UMP-CMP kinase expression by RT-PCR,HL-60 cells,No change
same,phenotypic change of HL-60 cells,HL-60 cells,altered the HL-60 cell phenotype from a suspension cell to an adherent cell; also recorded: induced phenotypic changes
O=c1ccn([C@@H]2O[C@H](COP(=O)(O)O)[C@@H](O)[C@H]2O)c(=O)[nH]1 [UMP],phosphorylation by the kinase as reported by Van Rompay et al.,UMP-CMP kinase [2],efficiently phosphorylated
same,"phosphorylation of the NMP as substrate (phosphate acceptor), in words",UMP-CMP kinase [1],prefers
O=c1ccn([C@@H]2O[C@H](COP(=O)(O)OP(=O)(O)OP(=O)(O)O)[C@@H](O)[C@H]2O)c(=O)[nH]1 [UTP],"ability of the NTP to act as phosphate donor (CDP formed), in words","UMP-CMP kinase [1]; CMP as substrate, FIG. 5B",preferred as phosphate donors over CTP and GTP
Nc1ccn([C@H]2C[C@H](O)[C@@H](COP(=O)(O)O)O2)c(=O)n1 [dCMP],phosphorylation by the kinase as reported by Van Rompay et al.,UMP-CMP kinase [2],efficiently phosphorylated
